The values that follow are results of earlier work, collected in US20250263624A1, “Environmentally friendly metal cutting oil with high load-bearing and high anti-wear properties” (Shenyang Peite Technology Co., Ltd, priority 2025, published 2025).

With `CC(C)CCCCCOC(=O)CCCCCCCCC(=O)OCCCCCC(C)C` [diisooctyl sebacate], the Water solubility entry is “Insoluble”.
